Reference: paper PMC11506774 (Biomolecules, 2024)
≈ marks a conversion by molar mass, not a printed value. Ends that are not written are not given here.

Key:
EV-A71/FY0805 [1] = conditions: for IC50 (µg/mL) EV-A71 /FY0805: 24 h
EV-A71/FY0805 [2] = assay: Receptor competition inhibition assay with cell-free heparan sulfate (HS); format: cell-based; conditions: peptide 62.5 µg/mL pre-incubated with HS (0–0.5 mg/mL) for 1 h, then mixed with 100 TCID50/50 µL EV-A71/FY0805, RD cells 24 h, crystal violet
Experimental: To confirm the interaction of P25 with receptor heparan sulfate (HS) on the cell surface, 50 µL P25 or its derivatives at a concentration of 62.5 µg/mL were pre-incubated with 50 µL cell-free HS (MCE, HY-101916, Princeton, NJ, USA) at different concentrations of 0–0.5 mg/mL at 37 °C for 1 h, mixed with 100 TCID50/50 µL of EV-A71/FY0805, and infected the pre-seeding RD monolayer cells on 96-well plates for 24 h. The CPE was detected and stained using crystal violet. The optical density (OD) at 550 nm was read using the TECAN Infinite 200 PRO instrument.

EV-D68/BCH895A = conditions: RD cells, 24 h, crystal violet
Poliovirus 3/nOPV3 = conditions: 24 h
Echo 30/WZ16 = conditions: RD cells, 24 h, crystal violet
RD cells = assay: Cytotoxicity assay (CCK-8); format: cell-based; conditions: 24 h, 2-fold dilutions from 1 mg/mL, CCK-8, absorbance 450 nm, mean ± SD, at least two independent experiments
Experimental: RD cells at a density of 4 × 10^4/100 µL/well were seeded in 96-well plates 24 h prior to the cytotoxicity assay. The peptide P25 and its derivatives were reconstituted in DMSO to a concentration of 25 mg/mL and then diluted to 1 mg/mL in DMEM with 100 mM HEPES, from which 2-fold serial dilutions of the peptides were produced, starting with the same medium. DMSO diluted in the same medium served as the control. Fifty microliters of diluted peptides and the control medium were added to the cells and cultured for 24 h. After cultivation, 5 µL of the enhanced CCK-8 reagent (Beyotime, C0043, Shanghai, China) were added directly to each well of the cell culture and cultured for an additional hour. Absorbance at 450 nm was detected using a TECAN Infinite 200 PRO instrument. The cell viability was normalized to the control, and the concentration at which a peptide inhibited 50% of the cell viability (CC50) was calculated using GraphPad Prism 9.5.1 (GraphPad software, San Diego, CA, USA).

HCV = conditions: cited from earlier work
EV-A71 = conditions: Table S2, anti-viral target EV-A71; ref [21]; cited from earlier work
From the text: page 2: Biomolecules 2024, 14, 1331. https://doi.org/10.3390/biom14101331 2 of 10 Table S2. Self-derived antiviral peptides. Source Virus Protein Peptide Sequence Mechanism Anti-viral EC50 Reference target […] Interfering PA- Influenza A PB1 PB11-25 TTFPYT binding domain of Influenza A / [48] PB1 PB1731– […] Interfering PB1- Influenza A PB1 757 ELGRQK binding domain of Influenza A / [22] PB2 EV-A71 VP1 SP40 […] Prevented EV-A71 EV-A71 6-9.3 [21] attachment μM […] Inhibiting S 0.32- HCoV-19 S P3 […] mediated cell–cell HC ...

EV-D68 = assay: Immunostaining of viral VP1 after post-infection peptide treatment; format: cell-based; conditions: RD cells infected with 10 TCID50/50 µL EV-D68 for 1 h, washed, peptide at 125 µg/mL for 24 h, VP1 immune-stained area (ImageJ)
Experimental: RD cells at a density of 4 × 10^4/100 µL/well were seeded in 96-well plates 24 h prior to infection. Fifty microliters of the diluted peptide P25 were added under the following conditions: (1) pre-treatment: cells were pretreated with the peptides for 6 h, 4 h, and 2 h at 35 °C, followed by washing twice with DMEM before virus infection; (2) co-treatment: the peptide was added to the cells together with virus without washing; (3) post-treatment: […] to the medium. Co-treatment with a homemade neutralizing antibody of EV-D68 was employed as the reference control. An amount of 100 TCID50/50 µL was used for the CPE reading, while 10 TCID50/50 µL was used for immunostaining. After 22–24 h of incubation the cells were fixed using 4% formaldehyde and stained with crystal violet or an antibody. The staining of crystal violet was measured at 550 nm using a TECAN Infinite 200 PRO instrument. To detect EV-D68, the polyclonal anti-VP1 (Genetek, GTX132313, South San Francisco, CA, USA) was employed for immunostaining, while the rabbit polyclonal anti-VP1 for the staining of Echo11 was prepared in our laboratory. […] The number of plaques was counted using the CTL ELISPOT reader. […]

[3] = co-treatment, 100 TCID50/50 µL, mean ± SD, at least two independent experiments, >125 = protection less than 50% at 125 µg/mL, NO = no inhibition observed
[4] = peptide at 125 µg/mL (about 56 µM) co-incubated with 100 TCID50/50 µL virus

CC[C@H](C)[C@H](NC(=O)[C@H](Cc1c[nH]cn1)NC(=O)[C@H](CCCCN)NC(=O)[C@@H]1CCCN1C(=O)[C@H](CCCCN)NC(=O)[C@H](CCSC)NC(=O)[C@H](Cc1ccc(O)cc1)NC(=O)[C@@H](NC(=O)[C@H](CCCNC(=N)N)NC(=O)[C@@H](NC(=O)[C@@H](NC(=O)[C@@H](NC(=O)[C@@H](N)[C@@H](C)O)C(C)C)[C@@H](C)O)C(C)C)C(C)C)C(=O)N[C@@H](CCCCN)C(=O)N[C@@H](C)C(=O)N[C@@H](Cc1c[nH]c2ccccc12)C(=O)N[C@@H](C)C(=O)O [Peptide P25.5]
IC50 (µg/mL) EV-A71 /FY0805 (EV-A71/FY0805 [1]): >125 µg/mL | Interference of HS with the antiviral activity of the peptide (EV-A71/FY0805 [2]): No significant interference

CC[C@H](C)[C@H](NC(=O)[C@H](CCCNC(=N)N)NC(=O)[C@@H](NC(=O)[C@@H](NC(=O)[C@@H](NC(=O)[C@H](CCCCN)NC(=O)[C@@H](NC(=O)[C@@H](N)CCCCN)C(C)C)C(C)C)C(C)C)[C@@H](C)O)C(=O)N[C@@H](Cc1ccc(O)cc1)C(=O)N[C@@H](Cc1c[nH]cn1)C(=O)N[C@@H](CCCCN)C(=O)N[C@@H](C)C(=O)N[C@@H](CCCCN)C(=O)N[C@@H](Cc1c[nH]cn1)C(=O)N[C@H](C(=O)N[C@@H](CCCCN)C(=O)N[C@@H](C)C(=O)N[C@@H](Cc1c[nH]c2ccccc12)C(=O)N[C@@H](CS)C(=O)O)[C@@H](C)O [Peptide P25.A81]
Antiviral activity of P25 homologous peptides to EV-A71/FY0805 (EV-A71/FY0805 [1]): displayed antiviral activity | IC50 (µg/mL) EV-A71 /FY0805 (EV-A71/FY0805 [1]): 23.60 ± 0.49 µg/mL (≈ 10.3 µM)

GFTVTVRVYMK [Peptide P25.1]
IC50 (µg/mL) EV-A71 /FY0805 (EV-A71/FY0805 [1]): 34.06 ± 9.39 µg/mL

CC[C@H](C)[C@H](NC(=O)[C@H](CCCNC(=N)N)NC(=O)[C@@H](NC(=O)[C@@H](NC(=O)[C@@H](NC(=O)[C@H](CCCCN)NC(=O)[C@H](Cc1ccccc1)NC(=O)CN)C(C)C)C(C)C)[C@@H](C)O)C(=O)N[C@@H](Cc1ccc(O)cc1)C(=O)N[C@@H](Cc1c[nH]cn1)C(=O)N[C@@H](CCCCN)C(=O)N[C@@H](C)C(=O)N[C@@H](CCCCN)C(=O)N[C@@H](Cc1c[nH]cn1)C(=O)N[C@H](C(=O)N[C@@H](CCCCN)C(=O)N[C@@H](C)C(=O)N[C@@H](Cc1c[nH]c2ccccc12)C(=O)N[C@@H](CS)C(=O)O)[C@@H](C)O [Peptide P25.A81GF]
IC50 (µg/mL) EV-D68 /BCH895A (EV-D68/BCH895A; [3]): >125 µg/mL | IC50 (µg/mL) EV-A71 /FY0805 (EV-A71/FY0805 [1]): 29.28 ± 3.97 µg/mL (≈ 12.9 µM) | IC50 (µg/mL) Poliovirus 3 /nOPV3 (Poliovirus 3/nOPV3): >125 µg/mL | IC50 (µg/mL) Echo 30 /WZ16 (Echo 30/WZ16; [3]): >125 µg/mL

CC[C@H](C)[C@H](NC(=O)[C@H](Cc1c[nH]cn1)NC(=O)[C@H](C)NC(=O)[C@@H]1CCCN1C(=O)[C@H](CCCCN)NC(=O)[C@H](CCSC)NC(=O)[C@H](Cc1ccc(O)cc1)NC(=O)[C@@H](NC(=O)[C@H](CCCNC(=N)N)NC(=O)[C@@H](NC(=O)[C@@H](NC(=O)[C@@H](NC(=O)[C@@H](NC(=O)[C@H](Cc1ccccc1)NC(=O)CN)[C@@H](C)O)C(C)C)[C@@H](C)O)C(C)C)C(C)C)C(=O)N[C@@H](C)C(=O)N[C@@H](C)C(=O)N[C@@H](Cc1c[nH]c2ccccc12)C(=O)N[C@@H](C)C(=O)O [Peptide P25.12]
IC50 (µg/mL) EV-A71 /FY0805 (EV-A71/FY0805 [1]): 41.17 ± 7.04 µg/mL (≈ 19.4 µM)

CC[C@H](C)[C@H](NC(=O)[C@H](Cc1c[nH]cn1)NC(=O)[C@H](CCCCN)NC(=O)[C@@H]1CCCN1C(=O)[C@H](CCCCN)NC(=O)[C@H](CCSC)NC(=O)[C@H](Cc1ccc(O)cc1)NC(=O)[C@@H](NC(=O)[C@H](CCCNC(=N)N)NC(=O)[C@@H](NC(=O)[C@@H](NC(=O)[C@@H](NC(=O)[C@@H](NC(=O)[C@@H](N)Cc1ccccc1)[C@@H](C)O)C(C)C)[C@@H](C)O)C(C)C)C(C)C)C(=O)N[C@@H](CCCCN)C(=O)N[C@@H](C)C(=O)N[C@@H](Cc1c[nH]c2ccccc12)C(=O)N[C@@H](C)C(=O)O [Peptide P25.8]
CC50 (RD cells): 213.07 ± 29.72 µg/mL (≈ 97.9 µM) | IC50 (µg/mL) EV-A71 /FY0805 (EV-A71/FY0805 [1]): 24.49 ± 2.96 µg/mL (≈ 11.3 µM) | IC50 (µg/mL) Poliovirus 3 /nOPV3 (Poliovirus 3/nOPV3): 61.65 ± 4.59 µg/mL (≈ 28.3 µM) | Interference of HS with the antiviral activity of the peptide (EV-A71/FY0805 [2]): interfered with by HS

CC[C@H](C)[C@H](NC(=O)[C@H](Cc1c[nH]cn1)NC(=O)[C@H](CCCCN)NC(=O)[C@@H]1CCCN1C(=O)[C@H](CCCCN)NC(=O)[C@H](CCSC)NC(=O)[C@H](Cc1ccc(O)cc1)NC(=O)[C@@H](NC(=O)[C@H](CCCNC(=N)N)NC(=O)[C@@H](NC(=O)[C@@H](NC(=O)[C@@H](NC(=O)[C@@H](N)[C@@H](C)O)C(C)C)[C@@H](C)O)C(C)C)C(C)C)C(=O)N[C@@H](CCCCN)C(=O)O [Peptide P25.2]
IC50 (µg/mL) EV-A71 /FY0805 (EV-A71/FY0805 [1]): >125 µg/mL

HGLLYFAIFFVAAWHIRGR [Peptide H2-3]
EC50 (HCV): 540 nM

TVTVRVYMK [Peptide P25.3]
IC50 (µg/mL) EV-A71 /FY0805 (EV-A71/FY0805 [1]): >125 µg/mL

SWLRDIWDWICEVLSDFK [Peptide C5A, peptide from NS5A of HCV, destabilizing viral membranes]
EC50 (HCV): 340 nM

AWAKIHKPKMYVRVTVTFG [Peptide P25.R]
CC50 (RD cells): 98.27 ± 7.13 µg/mL

QMRRKVELFTYMRFD [SP40, peptide derived from VP1 of EV-A71, prevented EV-A71 attachment]
EC50 (EV-A71): 6000 to 9300 nM

SFAIKWEYVLLLFLL [Peptide 75]
EC50 (HCV): 300 nM

CC[C@H](C)[C@H](NC(=O)[C@H](Cc1c[nH]cn1)NC(=O)[C@H](CCCCN)NC(=O)[C@@H]1CCCN1C(=O)[C@H](CCCCN)NC(=O)[C@H](CCSC)NC(=O)[C@H](Cc1ccc(O)cc1)NC(=O)[C@@H](NC(=O)[C@H](CCCNC(=N)N)NC(=O)[C@@H](NC(=O)[C@@H](NC(=O)[C@@H](NC(=O)[C@@H](NC(=O)[C@H](Cc1ccccc1)NC(=O)CNC(=O)[C@@H](NC(=O)[C@@H]1CCCN1C(=O)[C@H](CCC(N)=O)NC(=O)[C@@H](N)Cc1c[nH]cn1)C(C)C)[C@@H](C)O)C(C)C)[C@@H](C)O)C(C)C)C(C)C)C(=O)N[C@@H](CCCCN)C(=O)O [Peptide P25.9]
Inhibition of the synthesis of the viral protein (EV-D68): significantly inhibited the synthesis of the viral protein | IC50 (µg/mL) EV-A71 /FY0805 (EV-A71/FY0805 [1]): 13.02 ± 0.81 µg/mL (≈ 5.5 µM) | IC50 (µg/mL) Poliovirus 3 /nOPV3 (Poliovirus 3/nOPV3): 108.10 ± 39.15 µg/mL (≈ 45.7 µM) | Interference of HS with the antiviral activity of the peptide (EV-A71/FY0805 [2]): interfered with by HS

TVTVRVYHK [Peptide P25.4]
IC50 (µg/mL) EV-A71 /FY0805 (EV-A71/FY0805 [1]): >125 µg/mL

ADKNFFKWTINTRSFVQLRR [Peptide P11]
Inhibitory effect on CPE, peptide screen (EV-D68/BCH895A; [4]): exhibited inhibitory effects on CPE | Inhibitory effect on CPE, peptide screen (EV-A71/FY0805 [1]): exhibited inhibitory effects on CPE | Inhibitory effect on CPE, peptide screen (Echo 30/WZ16; [4]): exhibited inhibitory effects on CPE
